Earlier results in patent US20160249623A1, “METHODS FOR DISPENSING SALT-FREE HYPOCHLOROUS ACID FOR HAND-SANITIZING” (priority 2015, published 2016).

Experiments:
[1] = test system: HIV (Human Immunodeficiency Virus); conditions: the longest kill-time
[2] = test system: all viruses, bacteria, mold and spores

OCl [HOCI, hypochlorous acid]
kill-time [1]: less than 1 minute
kill-time [2]: within seconds
